Results taken from ChEMBL document CHEMBL1132020, “Highly potent inhibitors of the Grb2-SH2 domain” (Bioorg Med Chem Lett, 1999).

The compounds below were run against Growth factor receptor-bound protein 2 (Homo sapiens, UniProt P62993) (assay: Inhibition of Grb-SH2 domain binding to phosphorylated carboxy-terminal intracellular domain of epidermal growth factor receptor).
Type: cell-based

| Compound | IC50 |
| --- | --- |
| CC(=O)N[C@@H](Cc1ccc(CP(=O)(O)O)cc1)C(=O)NC1(C(=O)N[C@@H](CC(N)=O)C(=O)NCCCn2ccc3cc(Cl)ccc32)CCCCC1 | 59 nM |
| CC(=O)N[C@@H](Cc1ccc(CP(=O)(O)O)cc1)C(=O)NC1(C(=O)N[C@@H](CC(N)=O)C(=O)NCCCn2ccc3ccccc32)CCCCC1 | 1.2 nM |
| COc1ccc2c(CCCNC(=O)[C@H](CC(N)=O)NC(=O)C3(NC(=O)[C@H](Cc4ccc(CP(=O)(O)O)cc4)NC(C)=O)CCCCC3)c[nH]c2c1 | 14 nM |
| CC(=O)N[C@@H](Cc1ccc(CP(=O)(O)O)cc1)C(=O)NC1(C(=O)N[C@@H](CC(N)=O)C(=O)NCCCn2ccc3cc(C)ccc32)CCCCC1 | 0.4 nM |
| CC(=O)N[C@@H](Cc1ccc(CP(=O)(O)O)cc1)C(=O)NC1(C(=O)N[C@@H](CC(N)=O)C(=O)NCCCn2cc(C)c3ccccc32)CCCCC1 | 81 nM |
| CC(=O)N[C@@H](Cc1ccc(CP(=O)(O)O)cc1)C(=O)NC1(C(=O)N[C@@H](CC(N)=O)C(=O)NCCCn2c(C)cc3ccccc32)CCCCC1 | 14.7 nM |
| CC(=O)N[C@@H](Cc1ccc(CP(=O)(O)O)cc1)C(=O)NC1(C(=O)N[C@@H](CC(N)=O)C(=O)NCCCn2ccc3cc(O)ccc32)CCCCC1 | 0.3 nM |

More lines, in order of falling IC50, values ahead:

| IC50 | Compound |
| --- | --- |
| 155 nM | CC(=O)N[C@@H](Cc1ccc(CP(=O)(O)O)cc1)C(=O)NC1(C(=O)N[C@@H](CC(N)=O)C(=O)NCCCc2c[nH]c3ccccc23)CCCCC1 |
| 9.2 nM | CC(=O)N[C@@H](Cc1ccc(CP(=O)(O)O)cc1)C(=O)NC1(C(=O)N[C@@H](CC(N)=O)C(=O)NCCCc2cn(C)c3ccccc23)CCCCC1 |
| 3.4 nM | CC(=O)N[C@@H](Cc1ccc(CP(=O)(O)O)cc1)C(=O)NC1(C(=O)N[C@@H](CC(N)=O)C(=O)NCCCn2ccc3cc(N(C)C)ccc32)CCCCC1 |
| 0.9 nM | COc1ccc2c(ccn2CCCNC(=O)[C@H](CC(N)=O)NC(=O)C2(NC(=O)[C@H](Cc3ccc(CP(=O)(O)O)cc3)NC(C)=O)CCCCC2)c1 |
